A word on the DC50: it is the concentration giving 50% degradation.

Molecules are shown by their SMILES.

This is an account of results in patent US20240238425A1, “HSD17B13 Inhibitors and/or Degraders” (Pfizer Inc., priority 2022, published 2024).

For this assay, the system named is HiBiT-HSD17β13 fusion protein (N-terminal HiBiT-tagged HSD17β13 isoform D) in Huh7 HiBiT-HSD17β13 OE cells. Kind of assay: Whole-cell Huh7-HSD17B13 HiBiT assay (degrader potency and maximal efficacy, luminescence readout). It counts as cell-based, human. As to conditions: 24 hour incubation, geometric mean, * = geometric mean for all forms tested (parent and salt forms); for DC50: read-out: Huh7_HIBIT-HSD17β13_DC50 GMean DC50; for Huh7_HIBIT-HSD17β13_DC50 GMean Asymptote Maximum: max. concentration 1 μM. As to the method:
Degrader potency and maximal efficacy of test compounds were determined using a whole-cell Huh7-HSD17B13 HiBiT assay, utilizing a luminescence readout. A HiBiT tag was fused to the N-terminus of HSD17β13, and therefore the HiBiT luminescence signal produced in the assay was proportional to the level of HiBiT-HSD17β13 fusion protein in a sample.
A Huh7 HiBiT-HSD17β13 OE cell line was generated using electroporation with an N-terminal HiBiT-tagged HSD17β13 isoform D overexpression plasmid, followed by geneticin selection to produce a stable pool. Clones were created with varying HiBiT signals to optimize HiBiT HSD17 β13 ratios. A clone with similar HSD17β13 expression levels as human primary hepatocytes was selected for the compound screen.
Greiner 384-well white opaque, flat bottom, tissue culture treated plates (Greiner #781080) were used for both HiBiT and CTG assays. The treated plates were spotted with 25 nL of a compound which had been serial diluted 1 in 3.162 in 100% DMSO for an 11-point concentration response curve, with duplicate points at each concentration. The maximum concentration of the compounds was 1 mM, which was later diluted with cell suspension for a maximum concentration of 1 μM). High percentage effect (HPE) wells and zero percentage effect (ZPE) wells located in columns 1 and 24 were spotted with 25 nL of DMSO (Sigma #D2650) using an ECHO Acoustic Liquid Handler (Labcyte Echo 550 Series). Each plate was performed in duplicate.
The Huh7 HiBiT-HSD17β13 OE cells were plated on top of a compound or a DMSO control at 3,000 viable cells/well in 25 μL growth media (DMEM (Gibco #10569), 10% FBS HI (Gibco #16140), 1× Pen/Strep (Gibco #15070), 1×MEM Non-Essential Amino Acids (Gibco #11140), and 300 μg/mL Geneticin (Gibco #10131) in columns 2-24 of the plates. Huh7 parental cells were plated using the same parameters in column 1 (HPE) in the same culture medium, excluding Geneticin selection. Cells were incubated overnight with the compounds for 24 hours (with lid) at 37° C. ([…]).
Each assay was conducted after a 24 hour incubation period. In the HiBiT assay plates, 25 μL of complete Nano-Glo HiBiT Lytic detection system (Promega #PRN3040), consisting of HiBiT Lytic Buffer with the addition of 1:100 LgBiT Protein and 1:50 Substrate, was added to each well. In CTG counter screen plates, 25 μL of Cell Titer-Glo Luminescent Reagent (Promega #G7573) was added to each well. Both plates were centrifuged for 2 minutes at 1000 rpm and incubated at room temperature, in the dark, for 10 minutes. Then Luminescence was read using an EnVision Plate Reader (Perkin Elmer PE2103).
The raw data from the Envision Plate Reader was expressed as relative luminescence units (RLUs) for each well of the assay plates. Using HPE and ZPE controls, the % effect was calculated for each sample well as follows: Percent effect=[(sample RLU−HPE RLU)\(ZPE RLU−HPE RLU)]*100. The percent effect was plotted versus the compound concentration and a 50% degradation ([…]) was determined using a four-parameter logistic dose response equation. The raw data was analyzed using ABase (IDBS).
A general note: With HiBiT, luminescence reflects the tagged protein that the partner subunit can reach.

With `Cl.Cn1c(=O)n(C2CCC(=O)NC2=O)c2ccc(CCCN3Cc4ccc(-c5ccc6cn(C7CCC(CNC(=O)c8cc(F)c(O)c(F)c8F)CC7)nc6c5)cc4C3)cc21` (racemic) [Example 1, N-{[(1r,4r)-4-{6-[2-(3-{1-[(3RS)-2,6-Dioxopiperidin-3-yl]-3-methyl-2-oxo-2,3-dihydro-1H-benzimidazol-5-yl}propyl)-2,3-dihydro-1H-isoindol-5-yl]-2H-indazol-2-yl}cyclohexyl]methyl}-2,3,5-trifluoro-4-hydroxybenzamide, hydrochloride salt], the 50% degradation concentration (DC50) worked out at 110 pM and the “Huh7_HIBIT-HSD17β13_DC50 GMean Asymptote Maximum” value is 87* %.

As to `Cn1c(=O)n(C2CCC(=O)NC2=O)c2ccc(CCCN3Cc4ccc(-c5ccc6cn(C7CCC(CNC(=O)c8cc(F)c(O)c(F)c8F)CC7)nc6c5)nc4C3)cc21` (racemic) [Example 2, N-{[(1r,4r)-4-{6-[6-(3-{1-[(3RS)-2,6-Dioxopiperidin-3-yl]-3-methyl-2-oxo-2,3-dihydro-1H-benzimidazol-5-yl}propyl)-6,7-dihydro-5H-pyrrolo[3,4-b]pyridin-2-yl]-2H-indazol-2-yl}cyclohexyl]methyl}-2,3,5-trifluoro-4-hydroxybenzamide], the DC50 was found to be 160 pM and the “Huh7_HIBIT-HSD17β13_DC50 GMean Asymptote Maximum” value is 83* %.

For `Cl.Cn1c(=O)n(C2CCC(=O)NC2=O)c2ccc(CCCN3CCN(c4nccc(-c5nc(C67CCC(CNC(=O)c8cc(F)c(O)c(F)c8F)(CC6)CC7)no5)n4)CC3)cc21` (racemic) [Example 3, N-{[4-(5-{2-[4-(3-{1-[(3RS)-2,6-Dioxopiperidin-3-yl]-3-methyl-2-oxo-2,3-dihydro-1H-benzimidazol-5-yl}propyl)piperazin-1-yl]pyrimidin-4-yl}-1,2,4-oxadiazol-3-yl)bicyclo[2.2.2]octan-1-yl]methyl}-2,3,5-trifluoro-4-hydroxybenzamide, hydrochloride salt], the half-maximal degradation concentration (DC50) was determined as 190 pM and the “Huh7_HIBIT-HSD17β13_DC50 GMean Asymptote Maximum” value was 84* %.

For the compound `Cn1c(=O)n(C2CCC(=O)NC2=O)c2ccc(CCCN3CCN(c4nccc(-c5nc(C67CCC(CNC(=O)c8cc(F)c(O)c(F)c8F)(CC6)CC7)cs5)n4)CC3)cc21.O=CO` (racemic) [Example 4, N-{[4-(2-{2-[4-(3-{1-[(3RS)-2,6-Dioxopiperidin-3-yl]-3-methyl-2-oxo-2,3-dihydro-1H-benzimidazol-5-yl}propyl)piperazin-1-yl]pyrimidin-4-yl}-1,3-thiazol-4-yl)bicyclo[2.2.2]octan-1-yl]methyl}-2,3,5-trifluoro-4-hydroxybenzamide, formate salt], the DC50 came out at 380 pM and the “Huh7_HIBIT-HSD17β13_DC50 GMean Asymptote Maximum” value is reported as 84%.

Take `Cn1c(=O)n(C2CCC(=O)NC2=O)c2ccc(CCCN3CCN(c4nccc(-c5csc(C67CCC(CNC(=O)c8cc(F)c(O)c(F)c8F)(CC6)CC7)n5)n4)CC3)cc21` (racemic) [Example 5, N-{[4-(4-{2-[4-(3-{1-[(3RS)-2,6-Dioxopiperidin-3-yl]-3-methyl-2-oxo-2,3-dihydro-1H-benzimidazol-5-yl}propyl)piperazin-1-yl]pyrimidin-4-yl}-1,3-thiazol-2-yl)bicyclo[2.2.2]octan-1-yl]methyl}-2,3,5-trifluoro-4-hydroxybenzamide]: the DC50 is 310 pM and the “Huh7_HIBIT-HSD17β13_DC50 GMean Asymptote Maximum” value was 82%.

Regarding `O=C1CCC(N2Cc3c(OCc4ccc(CN5CCN(c6ccc7cn(C8CCC(CNC(=O)c9cc(F)c(O)c(F)c9)CC8)nc7c6)CC5)cc4)cccc3C2=O)C(=O)N1` (racemic) [Example 6, N-{[(1r,4r)-4-{6-[4-({4-[({2-[(3RS)-2,6-Dioxopiperidin-3-yl]-1-oxo-2,3-dihydro-1H-isoindol-4-yl}oxy)methyl]phenyl}methyl)piperazin-1-yl]-2H-indazol-2-yl}cyclohexyl]methyl}-3,5-difluoro-4-hydroxybenzamide], the half-maximal degradation concentration (DC50) amounted to 1400 pM and the “Huh7_HIBIT-HSD17β13_DC50 GMean Asymptote Maximum” value is 76* %.

As for `Cl.Cn1c(=O)n(C2CCC(=O)NC2=O)c2ccc(CCN3CCN(c4cnc(-c5ccc6cn(C7CCC(CNC(=O)c8cc(F)c(O)c(F)c8F)CC7)nc6c5)cn4)CC3)cc21` (racemic) [Example 8, N-{[(1r,4r)-4-(6-{5-[4-(2-{1-[(3RS)-2,6-Dioxopiperidin-3-yl]-3-methyl-2-oxo-2,3-dihydro-1H-benzimidazol-5-yl}ethyl)piperazin-1-yl]pyrazin-2-yl}-2H-indazol-2-yl)cyclohexyl]methyl}-2,3,5-trifluoro-4-hydroxybenzamide, hydrochloride salt], the DC50 came out at 210 pM and the “Huh7_HIBIT-HSD17β13_DC50 GMean Asymptote Maximum” value is reported as 87* %.

`Cl.Cn1c(=O)n(C2CCC(=O)NC2=O)c2ccc(CCN3CCN(c4ccc5cn(C6CCC(CNC(=O)c7cc(F)c(O)c(F)c7F)CC6)nc5c4)CC3)cc21` (racemic) [Example 9, N-{[(1r,4r)-4-{6-[4-(2-{1-[(3RS)-2,6-Dioxopiperidin-3-yl]-3-methyl-2-oxo-2,3-dihydro-1H-benzimidazol-5-yl}ethyl)piperazin-1-yl]-2H-indazol-2-yl}cyclohexyl]methyl}-2,3,5-trifluoro-4-hydroxybenzamide, hydrochloride salt]: the DC50 was determined as 260 pM and the “Huh7_HIBIT-HSD17β13_DC50 GMean Asymptote Maximum” value is 83* %.

With `Cn1c(=O)n(C2CCC(=O)NC2=O)c2ccc(CCCN3CCN(c4ncc(-c5ccn6cc(C78CCC(CNC(=O)c9cc(F)c(O)c(F)c9F)(CC7)CC8)nc6c5)cn4)CC3)cc21.O=C(O)C(F)(F)F` (racemic) [Example 12, N-{[4-(7-{2-[4-(3-{1-[(3RS)-2,6-Dioxopiperidin-3-yl]-3-methyl-2-oxo-2,3-dihydro-1H-benzimidazol-5-yl}propyl)piperazin-1-yl]pyrimidin-5-yl}imidazo[1,2-a]pyridin-2-yl)bicyclo[2.2.2]octan-1-yl]methyl}-2,3,5-trifluoro-4-hydroxybenzamide, trifluoroacetate salt], the half-maximal degradation concentration (DC50) turned out to be 140 pM and the “Huh7_HIBIT-HSD17β13_DC50 GMean Asymptote Maximum” value is 84%.

Regarding `Cn1c(=O)n(C2CCC(=O)NC2=O)c2ccc(CCCN3CCOC4(C3)CN(c3ncc(-c5ccc6cn(C7CCC(CNC(=O)c8cc(F)c(O)c(F)c8F)CC7)nc6c5)cn3)C4)cc21.O=C(O)C(F)(F)F` (racemic) [Example 13, N-{[(1r,4r)-4-(6-{2-[8-(3-{1-[(3RS)-2,6-Dioxopiperidin-3-yl]-3-methyl-2-oxo-2,3-dihydro-1H-benzimidazol-5-yl}propyl)-5-oxa-2,8-diazaspiro[3.5]nonan-2-yl]pyrimidin-5-yl}-2H-indazol-2-yl)cyclohexyl]methyl}-2,3,5-trifluoro-4-hydroxybenzamide, trifluoroacetate salt], the DC50 is 140 pM and the “Huh7_HIBIT-HSD17β13_DC50 GMean Asymptote Maximum” value is reported as 81%.

With `Cn1c(=O)n(C2CCC(=O)NC2=O)c2ccc(CCN3CCN(c4cncc(-c5ccc6cn(C7CCC(CNC(=O)c8cc(F)c(O)c(F)c8F)CC7)nc6c5)n4)CC3)cc21.O=C(O)C(F)(F)F` (racemic) [Example 14, N-{[(1r,4r)-4-(6-{6-[4-(2-{1-[(3RS)-2,6-Dioxopiperidin-3-yl]-3-methyl-2-oxo-2,3-dihydro-1H-benzimidazol-5-yl}ethyl)piperazin-1-yl]pyrazin-2-yl}-2H-indazol-2-yl)cyclohexyl]methyl}-2,3,5-trifluoro-4-hydroxybenzamide, trifluoroacetate salt], the DC50 came out at 230 pM and the “Huh7_HIBIT-HSD17β13_DC50 GMean Asymptote Maximum” value came out at 85%.
